# Measurements taken from PubChem BioAssay (NCI).
# Several values for one entry are separate records, joined by “and”; a condition that tells them apart may be missing. Equal entries are not always repeated.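 Assay format: 96-well plates, 48-hour exposure. Abbreviation: GI50, concentration required for 50% inhibition of growth. Definition used: TGI = concentration required for complete inhibition of growth.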
# Tests used:
# Experiment in all cases: NCI anticancer screen, dose series, 48 h
# [1] = tested on: SNB-75 CNS
# [2] = tested on: M14 melanoma
# [3] = tested on: NCI-H522 lung
# [4] = tested on: SNB-19 CNS
# [5] = tested on: HOP-92 NSCLC
# [6] = tested on: HOP-62 NSCLC
# [7] = tested on: NCI-H226 lung
# [8] = tested on: EKVX NSCLC
# [9] = tested on: SF-268 CNS
# [10] = tested on: SF-295 CNS
Structure (SMILES),GI50 [1],TGI [1],GI50 [2],TGI [2],GI50 [3],TGI [3],GI50 [4],TGI [4],GI50 [5],TGI [5],GI50 [6],TGI [6],GI50 [7],TGI [7],GI50 [8],TGI [8],GI50 [9],TGI [9],GI50 [10],TGI [10]
O=C(NCc1ccco1)c1ccc(NC2=C(Cl)C(=O)N(Cc3ccccc3)C2=O)cc1,41900 nM,> 100 µM,15100 nM,28.4 µM,19500 nM,57.9 µM,21.3 µM,45.6 µM,17700 nM,36 µM,16500 nM,31.7 µM,17.2 µM,60.8 µM,31200 nM,72.5 µM,17800 nM,54.1 µM,20800 nM,55.1 µM
CN(C)CCCNC(=O)c1cncnc1Nc1ccc(OCc2cccc(F)c2)c(Cl)c1,1640 nM,3.22 µM,1710 nM,3.38 µM,2000 nM,3.86 µM,1.72 µM,3.11 µM,1330 nM,3.16 µM,1750 nM,3.48 µM,4.27 µM,19.6 µM,1580 nM,3.15 µM,1810 nM,3.34 µM,1700 nM,3.1 µM
COc1cc(OC)c(NC(=O)c2cc3ccccc3cc2O)cc1Cl,1590 nM,15 µM,3030 nM,13.1 µM,2560 nM,6.12 µM,4.82 µM,> 100 µM,1550 nM,4.89 µM,1980 nM,6.84 µM,3.32 µM,17.7 µM,2220 nM,28 µM,3660 nM,33.4 µM,2800 nM,9.16 µM
CCCCCCCCCCCCOC1C(C(CC(=O)N2CCN(c3cccc(C(F)(F)F)c3)CC2)NS(=O)(=O)c2cc(Cl)cc(Cl)c2)OC2OC(C)(C)OC21 (stereo not given),> 100000 nM,> 100 µM,> 100000 nM,> 100 µM,> 100000 nM,> 100 µM,> 100 µM,> 100 µM,> 100000 nM,> 100 µM,> 100000 nM,> 100 µM,> 100 µM,> 100 µM,> 100000 nM,> 100 µM,> 100000 nM,> 100 µM,> 100000 nM,> 100 µM
O=c1c2ccccc2c2ccccc2c(=O)n1Cc1ccc2c(c1)OCO2,–,> 93.6 µM,–,> 100 µM,–,> 100 µM,–,> 100 µM,–,> 100 µM,–,> 100 µM,–,> 100 µM,–,> 100 µM,–,> 100 µM,–,> 100 µM
CCc1cc2c(cc1N1CCC(N3CCOCC3)CC1)C(C)(C)c1[nH]c3cc(C#N)ccc3c1C2=O,1030 nM and 1250 nM and 1380 nM,2.63 µM and 2.73 µM and 2.9 µM,1620 nM and 2050 nM and 2170 nM,8.88 µM and 11.9 µM and > 10 µM,1170 nM and 1690 nM and 1480 nM,3.81 µM and 4.88 µM and 5.85 µM,1.66 µM and 1.79 µM and 3.17 µM,4.02 µM and 4.44 µM and > 10 µM,386 nM and 179 nM and 576 nM,3.54 µM and 1.23 µM and 4.84 µM,849 nM and 1400 nM and 1430 nM,2.61 µM and 3.03 µM and 3.42 µM,1.75 µM and 1.63 µM and 1.61 µM,4.32 µM and 3.97 µM and 5.19 µM,1560 nM and 2040 nM,6.85 µM and > 10 µM,1570 nM and 1540 nM and 1920 nM,4.02 µM and 3.97 µM and 5.47 µM,2560 nM and 2950 nM and 1610 nM,9.06 µM and 13.2 µM and 3.68 µM
COc1cc(-c2ncn(/C=C\C(=O)OC(C)C)n2)cc(C(F)(F)F)c1,74.8 nM and 121 nM,0.999 µM and 0.904 µM,228 nM and 350 nM,4.74 µM and 14.5 µM,28.6 nM and 53.5 nM,0.734 µM and 0.597 µM,0.142 µM and 0.253 µM,13.5 µM and 14.9 µM,303 nM and 103 nM,4.96 µM and 5.68 µM,295 nM and 262 nM,3.46 µM and 3.94 µM,0.0164 µM and 0.031 µM,0.64 µM and 1.66 µM,2600 nM,19.5 µM,49.3 nM and 48.7 nM,8 µM and 3.58 µM,89.1 nM and 196 nM,14.1 µM and 11.8 µM
Fc1cccc2c1cc1ccc3cccc4ccc2c1c34,–,> 100 µM,–,> 100 µM,–,> 100 µM,–,> 100 µM,–,> 100 µM,–,> 100 µM,–,> 100 µM,–,> 100 µM,–,> 100 µM,–,> 100 µM
O=C(NCc1ccncc1)C12CC3CC(C1)CC(c1ccc(Cl)cc1)(C3)C2,13200 nM,27.2 µM,12700 nM,26.9 µM,13500 nM,28.8 µM,13.5 µM,27.8 µM,12000 nM,25.2 µM,14000 nM,27.2 µM,12 µM,31.1 µM,11600 nM,26.3 µM,13700 nM,29.5 µM,12700 nM,27.3 µM
NCCN1C(=O)C2C3c4ccccc4C(c4ccccc43)C2C1=O (stereo not given),–,> 100 µM,–,> 100 µM,–,> 100 µM,–,> 100 µM,–,> 100 µM,–,> 100 µM,–,> 100 µM,–,> 100 µM,–,> 100 µM,–,> 100 µM
CNC(=O)c1cccc2c(Nc3ccc(NS(C)(=O)=O)cc3OC)c3cccc(C)c3nc12,–,1.34 µM,–,2.63 µM,–,2.51 µM,–,5.04 µM,–,3.67 µM,–,0.155 µM,–,1.05 µM,–,12.1 µM,–,8.58 µM,–,0.555 µM
COc1ccc(OC)c(-c2cc(=O)c3c(OC)c(OC)c(OC)c(OC)c3o2)c1,–,> 100 µM,–,> 100 µM,–,46.4 µM,–,> 100 µM,–,57.7 µM,–,79.5 µM,–,77.8 µM,–,> 100 µM,–,> 100 µM,–,48.4 µM
COC(=O)/C=C/c1cn(C(C)=O)c2ccc(Br)cc12,16100 nM,55.2 µM,28500 nM,> 100 µM,21000 nM,97.5 µM,37.2 µM,> 100 µM,14700 nM,> 60.7 µM,25000 nM,> 73.5 µM,20.9 µM,> 93.4 µM,28200 nM,> 100 µM,26400 nM,> 100 µM,16100 nM,40.1 µM
CC(=O)[C@@]1(O)[C@H](C)C[C@H]2[C@@H]3C=C(C)C4=Cc5c(cnn5-c5ccccc5)C[C@]4(C)[C@H]3[C@@H](O)C[C@@]21C,2650 nM,11 µM,2840 nM,13.6 µM,2830 nM,8.85 µM,3.29 µM,14.2 µM,2420 nM,14 µM,3580 nM,9.75 µM,2.5 µM,15.7 µM,1250 nM,11.4 µM,2810 nM,16.6 µM,1730 nM,3.53 µM
Cc1cc(Oc2ccc3nc(COc4ccc(CC5SC(=O)NC5=O)cc4)n(C)c3c2)cc(C)c1N (stereo not given),27600 nM,> 72.7 µM,29600 nM,> 78.3 µM,33200 nM,> 73.9 µM,42.2 µM,> 100 µM,> 34400 nM,> 87.5 µM,48700 nM,> 100 µM,46.8 µM,> 95.7 µM,39000 nM,> 100 µM,46700 nM,> 100 µM,32500 nM,> 100 µM
CCC[CH2][Sn]1([CH2]CCC)[O]C(=O)c2ccc(C)cc2[O]1,226 nM,0.659 µM,584 nM,1.84 µM,113 nM,0.239 µM,0.32 µM,1.12 µM,326 nM,1.24 µM,2160 nM,3.88 µM,1.5 µM,2.93 µM,994 nM,2.23 µM,460 nM,1.46 µM,1210 nM,2.52 µM
N#CS.N=C=S.N=C=S.[Cu+2].[NH2-].[NH2-].[NH2-].[NH2-].c1ccc2ncccc2c1,21000 nM,49.9 µM,> 100000 nM,> 100 µM,44800 nM,> 100 µM,18.1 µM,32.9 µM,> 100000 nM,> 100 µM,36900 nM,> 100 µM,28.3 µM,49.4 µM,47400 nM,> 100 µM,49700 nM,> 100 µM,17700 nM,37 µM
